What was measured:
Assay type in all cases: in vivo
[1] = test system: giant foxtail (Setaria faberii); experiment: Test A preemergence; details: Setaria faberi, pre-emergence, 240 h, preemergence, 0 to 100 scale where 0 is no effect and 100 is complete control, read-out: Foxtail, Giant plant response rating; for pest or weed control at 125 g/ha: 125 g ai/ha, visual injury rating, approximately 10 d; for pest or weed control at 500 g/ha: 500 g ai/ha
Method in brief: (§1)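 Preemergence directed soil spray on seeded pots, or postemergence application to plants 2–10 cm, one- to two-leaf. Solvent mixture non-phytotoxic, with surfactant. Scored ~10 d later, visually, 0–100 vs untreated.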

[2] = test system: ryegrass, Italian (Italian ryegrass, Lolium multiflorum); experiment: Test A preemergence; details: Lolium multiflorum, pre-emergence, 240 h, preemergence, 0 to 100 scale where 0 is no effect and 100 is complete control, read-out: Ryegrass, Italian plant response rating; for pest or weed control at 125 g/ha: 125 g ai/ha, visual injury rating, approximately 10 d; for pest or weed control at 500 g/ha: 500 g ai/ha
Method in brief: as §1

[3] = test system: ragweed (common ragweed, Ambrosia elatior); experiment: Test A preemergence; details: Ambrosia artemisiifolia, pre-emergence, 240 h, preemergence, 0 to 100 scale where 0 is no effect and 100 is complete control, read-out: Ragweed plant response rating; for pest or weed control at 125 g/ha: 125 g ai/ha, visual injury rating, approximately 10 d; for pest or weed control at 500 g/ha: 500 g ai/ha
Method in brief: as §1

[4] = test system: barnyardgrass (Echinochloa crus-galli); experiment: Test A preemergence; details: Echinochloa crus-galli, pre-emergence, 240 h, preemergence, 0 to 100 scale where 0 is no effect and 100 is complete control, read-out: Barnyardgrass plant response rating; for pest or weed control at 125 g/ha: 125 g ai/ha, visual injury rating, approximately 10 d; for pest or weed control at 500 g/ha: 500 g ai/ha
Method in brief: as §1

Kochia (Kochia scoparia) [5] = experiment: Test A preemergence; details: Bassia scoparia, pre-emergence, 240 h, preemergence, 0 to 100 scale where 0 is no effect and 100 is complete control, read-out: Kochia plant response rating; for pest or weed control at 125 g/ha: 125 g ai/ha, visual injury rating, approximately 10 d; for pest or weed control at 500 g/ha: 500 g ai/ha
Method in brief: as §1

[6] = test system: pigweed (Amaranthus retroflexus); experiment: Test A preemergence; details: Amaranthus retroflexus, pre-emergence, 240 h, preemergence, 0 to 100 scale where 0 is no effect and 100 is complete control, read-out: Pigweed plant response rating; for pest or weed control at 125 g/ha: 125 g ai/ha, visual injury rating, approximately 10 d; for pest or weed control at 500 g/ha: 500 g ai/ha
[7] = test system: giant foxtail (Setaria faberii); experiment: Test A postemergence; details: Setaria faberi, post-emergence, 240 h, postemergence; for pest or weed control at 125 g/ha: 125 g ai/ha, visual injury vs untreated controls after approx. 10 d, 0 = no effect, 100 = complete control, read-out: Foxtail, Giant plant response rating (0 to 100 scale); for pest or weed control at 500 g/ha: 500 g ai/ha, 0 to 100 scale, 0 is no effect, 100 is complete control, read-out: Foxtail, Giant plant response rating
Method in brief: as §1

[8] = test system: ryegrass, Italian (Italian ryegrass, Lolium multiflorum); experiment: Test A postemergence; details: Lolium multiflorum, post-emergence, 240 h, postemergence; for pest or weed control at 125 g/ha: 125 g ai/ha, visual injury vs untreated controls after approx. 10 d, 0 = no effect, 100 = complete control, read-out: Ryegrass, Italian plant response rating (0 to 100 scale); for pest or weed control at 500 g/ha: 500 g ai/ha, 0 to 100 scale, 0 is no effect, 100 is complete control, read-out: Ryegrass, Italian plant response rating
Method in brief: as §1

[9] = test system: blackgrass (Alopecurus myosuroides); experiment: Test A postemergence; details: Alopecurus myosuroides, post-emergence, 240 h, postemergence; for pest or weed control at 125 g/ha: 125 g ai/ha, visual injury vs untreated controls after approx. 10 d, 0 = no effect, 100 = complete control, read-out: Blackgrass plant response rating (0 to 100 scale); for pest or weed control at 500 g/ha: 500 g ai/ha, 0 to 100 scale, 0 is no effect, 100 is complete control, read-out: Blackgrass plant response rating
Method in brief: as §1

[10] = test system: ragweed (common ragweed, Ambrosia elatior); experiment: Test A postemergence; details: Ambrosia artemisiifolia, post-emergence, 240 h, postemergence; for pest or weed control at 125 g/ha: 125 g ai/ha, visual injury vs untreated controls after approx. 10 d, 0 = no effect, 100 = complete control, read-out: Ragweed plant response rating (0 to 100 scale); for pest or weed control at 500 g/ha: 500 g ai/ha, 0 to 100 scale, 0 is no effect, 100 is complete control, read-out: Ragweed plant response rating
Method in brief: as §1

[11] = test system: Galium (catchweed bedstraw, Galium aparine); experiment: Test A postemergence; details: Galium, post-emergence, 240 h, postemergence; for pest or weed control at 125 g/ha: 125 g ai/ha, visual injury vs untreated controls after approx. 10 d, 0 = no effect, 100 = complete control, read-out: Galium plant response rating (0 to 100 scale); for pest or weed control at 500 g/ha: 500 g ai/ha, 0 to 100 scale, 0 is no effect, 100 is complete control, read-out: Galium plant response rating
Method in brief: as §1

[12] = test system: wheat (Triticum aestivum); experiment: Test A postemergence; details: Triticum aestivum, post-emergence, 240 h, postemergence; for plant injury at 125 g/ha: 125 g ai/ha, visual injury vs untreated controls after approx. 10 d, 0 = no effect, 100 = complete control, read-out: Wheat plant response rating (0 to 100 scale); for plant injury at 500 g/ha: 500 g ai/ha, 0 to 100 scale, 0 is no effect, 100 is complete control, read-out: Wheat plant response rating
Method in brief: as §1

Kochia (Kochia scoparia) [13] = experiment: Test A postemergence; details: Bassia scoparia, post-emergence, 240 h, postemergence; for pest or weed control at 125 g/ha: 125 g ai/ha, visual injury vs untreated controls after approx. 10 d, 0 = no effect, 100 = complete control, read-out: Kochia plant response rating (0 to 100 scale); for pest or weed control at 500 g/ha: 500 g ai/ha, 0 to 100 scale, 0 is no effect, 100 is complete control, read-out: Kochia plant response rating
Method in brief: as §1

corn (Zea mays) = experiment: Test A postemergence; details: Zea mays, post-emergence, 240 h, postemergence; for plant injury at 125 g/ha: 125 g ai/ha, visual injury vs untreated controls after approx. 10 d, 0 = no effect, 100 = complete control, read-out: Corn plant response rating (0 to 100 scale); for plant injury at 500 g/ha: 500 g ai/ha, 0 to 100 scale, 0 is no effect, 100 is complete control, read-out: Corn plant response rating
Method in brief: as §1

[14] = test system: pigweed (Amaranthus retroflexus); experiment: Test A postemergence; details: Amaranthus retroflexus, post-emergence, 240 h, postemergence; for pest or weed control at 125 g/ha: 125 g ai/ha, visual injury vs untreated controls after approx. 10 d, 0 = no effect, 100 = complete control, read-out: Pigweed plant response rating (0 to 100 scale); for pest or weed control at 500 g/ha: 500 g ai/ha, 0 to 100 scale, 0 is no effect, 100 is complete control, read-out: Pigweed plant response rating
Method in brief: as §1

Row | SMILES | pest or weed control at 125 g/ha [1] [%] | pest or weed control at 500 g/ha [1] [%] | pest or weed control at 125 g/ha [2] [%] | pest or weed control at 500 g/ha [2] [%] | pest or weed control at 125 g/ha [3] [%] | pest or weed control at 500 g/ha [3] [%] | pest or weed control at 125 g/ha [4] [%] | pest or weed control at 500 g/ha [4] [%] | pest or weed control at 125 g/ha (Kochia (Kochia scoparia) [5]) [%] | pest or weed control at 125 g/ha [6] [%] | pest or weed control at 500 g/ha [6] [%] | pest or weed control at 125 g/ha [7] [%] | pest or weed control at 500 g/ha [7] [%] | pest or weed control at 125 g/ha [8] [%] | pest or weed control at 500 g/ha [8] [%] | pest or weed control at 125 g/ha [9] [%] | pest or weed control at 500 g/ha [9] [%] | pest or weed control at 125 g/ha [10] [%] | pest or weed control at 500 g/ha [10] [%] | pest or weed control at 125 g/ha [11] [%] | other results
1 | COc1cc(C(F)(F)F)ccc1[C@H]1CNC(=O)[C@@H]1C(=O)Nc1cccc(F)c1F [Compound 1203] | 80 | 90 | 0 | 20 | 30 | 80 | 80 | 90 | 20 | 0 | 20 | 90 | 90 | 0 | 0 | 20 | 60 | 20 | 30 | 50 | pest or weed control at 500 g/ha (Kochia (Kochia scoparia) [5]): 50%; pest or weed control at 500 g/ha [11]: 60%; plant injury at 125 g/ha [12]: 0%; plant injury at 500 g/ha [12]: 50%; pest or weed control at 125 g/ha (Kochia (Kochia scoparia) [13]): 40%; pest or weed control at 500 g/ha (Kochia (Kochia scoparia) [13]): 60%; plant injury at 125 g/ha (corn (Zea mays)): 40%; plant injury at 500 g/ha (corn (Zea mays)): 70%; pest or weed control at 125 g/ha [14]: 0%; pest or weed control at 500 g/ha [14]: 20%
2 | COc1ccc([C@H]2CN(C)C(=O)[C@@H]2C(=O)Nc2ccccc2SC)c(OC)c1 [Compound 1216] | 30 | 80 | 0 | 0 | 0 | 20 | 0 | 90 | 0 | 0 | 0 | 20 | 80 | 0 | 0 | 0 | 0 | 0 | 0 | 0 | pest or weed control at 500 g/ha [11]: 0%; plant injury at 125 g/ha [12]: 0%; plant injury at 500 g/ha [12]: 0%; pest or weed control at 125 g/ha (Kochia (Kochia scoparia) [13]): 0%; pest or weed control at 500 g/ha (Kochia (Kochia scoparia) [13]): 40%; plant injury at 125 g/ha (corn (Zea mays)): 0%; plant injury at 500 g/ha (corn (Zea mays)): 0%; pest or weed control at 125 g/ha [14]: 0%; pest or weed control at 500 g/ha [14]: 0%
3 | COc1cc([C@H]2CN(C)C(=O)[C@@H]2C(=O)Nc2ccccc2SC)cc(OC)c1OC [Compound 1218] | 80 | 90 | 0 | 0 | 0 | 0 | 30 | 100 | 0 | 0 | 0 | 0 | 50 | 0 | 0 | 0 | 0 | 0 | 0 | 0 | pest or weed control at 500 g/ha (Kochia (Kochia scoparia) [5]): 0%; pest or weed control at 500 g/ha [11]: 0%; plant injury at 125 g/ha [12]: 0%; plant injury at 500 g/ha [12]: 0%; pest or weed control at 125 g/ha (Kochia (Kochia scoparia) [13]): 0%; pest or weed control at 500 g/ha (Kochia (Kochia scoparia) [13]): 20%; plant injury at 125 g/ha (corn (Zea mays)): 0%; plant injury at 500 g/ha (corn (Zea mays)): 0%; pest or weed control at 125 g/ha [14]: 0%; pest or weed control at 500 g/ha [14]: 0%
